Reference: publication PMC11044166, “Synthesis, DFT Calculations, In Silico Studies, and Antimicrobial Evaluation of Benzimidazole-Thiadiazole Derivatives” (ACS Omega, 2024)
In brackets after ≈: the same amount, converted by molar mass. Read-outs that look alike come from different tables or passages of the source.

Experiments:
[1] = system: L929 fibroblast cell line; experiment: Cytotoxicity MTT assay on healthy cells; assay type: cell-based; conditions: L929 healthy mouse fibroblast cells
Method: The effect of the compounds between 5a–i on the viability of the L929 cell line was analyzed by MTT assay. The MTT method was performed as previously described.[27]

[2] = system: E. coli (ATCC 25922); experiment: Antibacterial microdilution MIC; assay type: cell-based; conditions: Escherichia coli, ATCC25922
Method: (§1) The antifungal and antibacterial activities of the synthesized compounds (5a–i) were evaluated in vitro against E. coli (ATCC 25922), S. marcescens (ATCC 8100), K. pneumoniae (ATCC 13883), P. aeruginosa (ATCC 27853), E. faecalis (ATCC 2942), B. subtilis, S. aureus (ATCC 29213), S. epidermidis (ATCC 12228), C. albicans (ATCC 24433), C. krusei (ATCC 6258), and C. parapsilosis (ATCC 22019). The final synthesized compounds were evaluated as antibacterial and antifungal references, in comparison to azithromycin, voriconazole, and fluconazole. Tables 1 and 2 provide a summary of the antimicrobial activity test results and the minimum inhibitory concentrations (MICs) of the compounds (5a–i).
(§2) The antimicrobial activity of the final compounds (5a–i) was screened against eight species of pathogenic bacteria and […] (E. coli (ATCC 25922), S. marcescens (ATCC 8100), K. pneumonia (ATCC 13883), P. aeruginosa (ATCC 27853), E. faecalis (ATCC 2942), B. subtilis (NRRL NRS 744), S. aureus (ATCC 29213), S. epidermidis (ATCC 12228), C. albicans (ATCC 24433), C. glabrata (ATCC 90030), C. krusei (ATCC 6258), and C. parapsilosis (ATCC 22 019)) according to the microdilution standard methods CLSI M07-A9 (2012) and NCCLS M27-A2 (2002), as described in the previous study.[25],[26]

[3] = system: E. faecalis (ATCC 2942); experiment: Antibacterial microdilution MIC; assay type: cell-based; conditions: Enterococcus faecalis, ATCC2942
Method: as §1, §2

[4] = system: B. subtilis; experiment: Antibacterial microdilution MIC; assay type: cell-based; conditions: Bacillus subtilis
Method: as §1, §2

[5] = system: S. marcescens (ATCC 8100); experiment: Antibacterial microdilution MIC; assay type: cell-based; conditions: Serratia marcescens, ATCC8100
Method: as §1, §2

[6] = system: P. aeruginosa (ATCC 27853); experiment: Antibacterial microdilution MIC; assay type: cell-based; conditions: Pseudomonas aeruginosa, ATCC27853
Method: as §1, §2

[7] = system: K. pneumoniae (ATCC 13883); experiment: Antibacterial microdilution MIC; assay type: cell-based; conditions: Klebsiella pneumoniae, ATCC13883
Method: as §1, §2

[8] = system: S. aureus (ATCC 29213); experiment: Antibacterial microdilution MIC; assay type: cell-based; conditions: Staphylococcus aureus, ATCC29213
Method: as §1, §2

[9] = system: S. epidermidis (ATCC 12228); experiment: Antibacterial microdilution MIC; assay type: cell-based; conditions: Staphylococcus epidermidis, ATCC12228
Method: as §1, §2

[10] = system: C. krusei (ATCC 6258); experiment: Antifungal microdilution MIC; assay type: cell-based; conditions: Pichia kudriavzevii, ATCC6258
Method: as §1, §2

[11] = system: C. albicans (ATCC 24433); experiment: Antifungal microdilution MIC; assay type: cell-based; conditions: Candida albicans, ATCC24433
Method: as §1, §2

[12] = system: C. parapsilosis (ATCC 22019); experiment: Antifungal microdilution MIC; assay type: cell-based; conditions: Lodderomyces parapsilosis, ATCC22019
Method: as §1, §2

[13] = A: E. coli (ATCC 25922), Gram-negative, read-out: MIC
[14] = E: E. faecalis (ATCC 2942), Gram-positive, read-out: MIC
[15] = F: B. subtilis, Gram-positive, read-out: MIC
[16] = B: S. marcescens (ATCC 8100), Gram-negative, read-out: MIC
[17] = D: P. aeruginosa (ATCC 27853), Gram-negative, read-out: MIC
[18] = C: K. pneumoniae (ATCC 13883), Gram-negative, read-out: MIC
[19] = G: S. aureus (ATCC 29213), Gram-positive, read-out: MIC
[20] = H: S. epidermidis (ATCC 12228), Gram-positive, read-out: MIC
[21] = C. krusei (ATCC 6258), read-out: MIC
[22] = C. albicans (ATCC 24433), read-out: MIC
[23] = C. parapsilosis (ATCC 22019), read-out: MIC

Row | SMILES | melting point | MIC [2, 13] | MIC [3, 14] | MIC [4, 15] | MIC [5, 16] | MIC [6, 17] | MIC [7, 18] | MIC [8, 19] | MIC [9, 20] | MIC [10, 21] | MIC [11, 22] | MIC [12, 23] | IC50 [1] | also measured
1 | ClCCNc1nnc(-c2ccc(-c3nc4ccccc4[nH]3)cc2)s1 [Compound 5c, N-(2-Chloroethyl)-5-(4-(1H-Benzo[d]imidazole-2-Yl)phenyl)-1,3,4-Thiadiazole-2-Amine] | 191.2 °C |  |  |  |  |  |  |  |  |  |  |  |  | MIC [2]: 62.5 µg/mL (≈ 176 µM); MIC [3]: 15.6 µg/mL (≈ 43.9 µM); MIC [4]: 62.5 µg/mL (≈ 176 µM); MIC [5]: 62.5 µg/mL (≈ 176 µM); MIC [6]: 125 µg/mL (≈ 351 µM); MIC [7]: 62.5 µg/mL (≈ 176 µM); MIC [8]: 31.2 µg/mL (≈ 87.8 µM); MIC [9]: 31.2 µg/mL (≈ 87.8 µM); MIC [10]: 125 µg/mL (≈ 351 µM); MIC [11]: 31.2 µg/mL (≈ 87.8 µM); MIC [12]: 125 µg/mL (≈ 351 µM)
2 | CC(C)Nc1nnc(-c2ccc(-c3nc4ccccc4[nH]3)cc2)s1 [Compound 5f, N-Isopropyl-5-(4-(1H-Benzo[d]imidazole-2-Yl)phenyl)-1,3,4-Thiadiazole-2-Amine] | 324.7 °C | 125 µg/mL (≈ 373 µM) | 3.9 µg/mL (≈ 11.6 µM) | 125 µg/mL (≈ 373 µM) | 125 µg/mL (≈ 373 µM) | 125 µg/mL (≈ 373 µM) | 125 µg/mL (≈ 373 µM) | 62.5 µg/mL (≈ 186 µM) | 3.9 µg/mL (≈ 11.6 µM) | 125 µg/mL (≈ 373 µM) | 3.9 µg/mL (≈ 11.6 µM) | 125 µg/mL (≈ 373 µM) | 175 ± 3.02 µM | 
3 | COc1ccc(Nc2nnc(-c3ccc(-c4nc5ccccc5[nH]4)cc3)s2)cc1 [Compound 5h, N-(4-Methoxyphenyl)-5-(4-(1H-Benzo[d]imidazole-2-Yl)phenyl)-1,3,4-Thiadiazole-2-Amine] | 276.7 °C | 31.2 µg/mL (≈ 78.2 µM) | 3.9 µg/mL (≈ 9.76 µM) | 125 µg/mL (≈ 313 µM) | 62.5 µg/mL (≈ 156 µM) | 31.2 µg/mL (≈ 78.2 µM) | 62.5 µg/mL (≈ 156 µM) | 31.2 µg/mL (≈ 78.2 µM) | 31.2 µg/mL (≈ 78.2 µM) | 125 µg/mL (≈ 313 µM) | 3.9 µg/mL (≈ 9.76 µM) | 125 µg/mL (≈ 313 µM) | 76 ± 9.4 µM | 
4 | CC[C@H]1OC(=O)[C@H](C)[C@@H](O[C@H]2C[C@@](C)(OC)[C@@H](O)[C@H](C)O2)[C@H](C)[C@@H](O[C@@H]2O[C@H](C)C[C@H](N(C)C)[C@H]2O)[C@](C)(O)C[C@@H](C)CN(C)[C@H](C)[C@@H](O)[C@]1(C)O [azithromycin, reference compound] |  | < 0.97 µg/mL | < 0.97 µg/mL | < 0.97 µg/mL | < 0.97 µg/mL | < 0.97 µg/mL | < 0.97 µg/mL | < 0.97 µg/mL | < 0.97 µg/mL |  |  |  |  | 
5 | C[C@@H](c1ncncc1F)[C@](O)(Cn1cncn1)c1ccc(F)cc1F [voriconazole, reference compound] |  |  |  |  |  |  |  |  |  | 3.9 µg/mL (≈ 11.2 µM) | 3.9 µg/mL (≈ 11.2 µM) | 3.9 µg/mL (≈ 11.2 µM) |  | 

More lines, main results first:

Row | melting point | MIC [2, 13] | MIC [3, 14] | MIC [4, 15] | MIC [5, 16] | MIC [6, 17] | MIC [7, 18] | MIC [8, 19] | MIC [9, 20] | MIC [10, 21] | MIC [11, 22] | MIC [12, 23] | SMILES | IC50 [1] | also measured
6 | 325.6 °C | 250 µg/mL (≈ 813 µM) | 3.9 µg/mL (≈ 12.7 µM) | 125 µg/mL (≈ 407 µM) | 62.5 µg/mL (≈ 203 µM) | 62.5 µg/mL (≈ 203 µM) | 125 µg/mL (≈ 407 µM) | 7.81 µg/mL (≈ 25.4 µM) | 7.81 µg/mL (≈ 25.4 µM) | 125 µg/mL (≈ 407 µM) | 31.2 µg/mL (≈ 102 µM) | 125 µg/mL (≈ 407 µM) | CNc1nnc(-c2ccc(-c3nc4ccccc4[nH]3)cc2)s1 [Compound 5a, N-Methyl-5-(4-(1H-Benzo[d]imidazole-2-Yl)phenyl)-1,3,4-Thiadiazole-2-Amine] | 152 ± 3.64 µM | 
7 | 321.6 °C | 62.5 µg/mL (≈ 194 µM) | 3.9 µg/mL (≈ 12.1 µM) | 125 µg/mL (≈ 389 µM) | 62.5 µg/mL (≈ 194 µM) | 62.5 µg/mL (≈ 194 µM) | 62.5 µg/mL (≈ 194 µM) | 31.2 µg/mL (≈ 97.2 µM) | 31.2 µg/mL (≈ 97.2 µM) | 31.2 µg/mL (≈ 97.2 µM) | 7.81 µg/mL (≈ 24.3 µM) | 15.6 µg/mL (≈ 48.6 µM) | CCNc1nnc(-c2ccc(-c3nc4ccccc4[nH]3)cc2)s1 [Compound 5b, N-Ethyl-5-(4-(1H-Benzo[d]imidazole-2-Yl)phenyl)-1,3,4-Thiadiazole-2-Amine] | 119 ± 9.64 µM | 
8 | 294.8 °C | 125 µg/mL (≈ 309 µM) | 7.81 µg/mL (≈ 19.3 µM) | 125 µg/mL (≈ 309 µM) | 62.5 µg/mL (≈ 155 µM) | 125 µg/mL (≈ 309 µM) | 125 µg/mL (≈ 309 µM) | 7.81 µg/mL (≈ 19.3 µM) | 31.2 µg/mL (≈ 77.4 µM) | 125 µg/mL (≈ 309 µM) | 7.81 µg/mL (≈ 19.3 µM) | 125 µg/mL (≈ 309 µM) | Clc1ccccc1Nc1nnc(-c2ccc(-c3nc4ccccc4[nH]3)cc2)s1 [Compound 5d, N-(2-Chlorophenyl)-5-(4-(1H-Benzo[d]imidazole-2-Yl)phenyl)-1,3,4-Thiadiazole-2-Amine] | 197 ± 14.7 µM | 
9 | 276.5 °C | 125 µg/mL (≈ 333 µM) | 15.6 µg/mL (≈ 41.6 µM) | 250 µg/mL (≈ 666 µM) | 125 µg/mL (≈ 333 µM) | 125 µg/mL (≈ 333 µM) | 125 µg/mL (≈ 333 µM) | 125 µg/mL (≈ 333 µM) | 7.81 µg/mL (≈ 20.8 µM) | 125 µg/mL (≈ 333 µM) | 7.81 µg/mL (≈ 20.8 µM) | 125 µg/mL (≈ 333 µM) | c1ccc2[nH]c(-c3ccc(-c4nnc(NC5CCCCC5)s4)cc3)nc2c1 [Compound 5e, N-Cyclohexyl-5-(4-(1H-Benzo[d]imidazole-2-Yl)phenyl)-1,3,4-Thiadiazole-2-Amine] | 102 ± 12 µM | 
10 | 275.2 °C | 125 µg/mL (≈ 373 µM) | 15.6 µg/mL (≈ 46.6 µM) | 125 µg/mL (≈ 373 µM) | 250 µg/mL (≈ 745 µM) | 125 µg/mL (≈ 373 µM) | 125 µg/mL (≈ 373 µM) | 31.2 µg/mL (≈ 93.2 µM) | 31.2 µg/mL (≈ 93.2 µM) | 125 µg/mL (≈ 373 µM) | 7.81 µg/mL (≈ 23.3 µM) | 125 µg/mL (≈ 373 µM) | CCCNc1nnc(-c2ccc(-c3nc4ccccc4[nH]3)cc2)s1 [Compound 5g, N-Propyl-5-(4-(1H-Benzo[d]imidazole-2-Yl)phenyl)-1,3,4-Thiadiazole-2-Amine] |  | 
11 | 315.6 °C | 125 µg/mL (≈ 358 µM) | 15.6 µg/mL (≈ 44.7 µM) | 125 µg/mL (≈ 358 µM) | 62.5 µg/mL (≈ 179 µM) | 31.2 µg/mL (≈ 89.4 µM) | 62.5 µg/mL (≈ 179 µM) | 62.5 µg/mL (≈ 179 µM) | 62.5 µg/mL (≈ 179 µM) | 125 µg/mL (≈ 358 µM) | 31.2 µg/mL (≈ 89.4 µM) | 125 µg/mL (≈ 358 µM) | CC(C)CNc1nnc(-c2ccc(-c3nc4ccccc4[nH]3)cc2)s1 [Compound 5i, N-Isobutyl-5-(4-(1H-Benzo[d]imidazole-2-Yl)phenyl)-1,3,4-Thiadiazole-2-Amine] |  | 
12 |  |  |  |  |  |  |  |  |  | 7.81 µg/mL (≈ 25.5 µM) | 7.81 µg/mL (≈ 25.5 µM) | 7.81 µg/mL (≈ 25.5 µM) | OC(Cn1cncn1)(Cn1cncn1)c1ccc(F)cc1F [fluconazole, reference compound] |  | 
